In ChEMBL document CHEMBL1136411, “Imidazo[4,5-b]pyridines as corticotropin releasing factor receptor ligands” (Bioorg Med Chem Lett, 2003):

Assays:
[1] = molecular target: T1, Corticotropin releasing factor receptor (Rattus norvegicus, UniProt P47866+P35353); assay: In vitro binding affinity to the CRF receptor in rat cortical homogenates
[2] = molecular target: T1, Corticotropin releasing factor receptor; assay: In vitro binding affinity against Corticotropin releasing factor receptor in rat cortical homogenates
[3] = Maximal plasma concentration at a dose of 1 mg/kg; type: ADME, organism-based, Canis lupus familiaris; parameters: dose 1 mg/kg; conditions: dog
Canis familiaris = assay: Area under the curve at a dose of 1 mg/kg; type: ADME, organism-based, Canis lupus familiaris; parameters: dose 1 mg/kg; conditions: dog, in vivo
[4] = Half life was determined; type: ADME, organism-based, Canis lupus familiaris; conditions: dog, in vivo
Rattus norvegicus = assay: Anxiolytic efficacy in rat after peroral administration; type: functional; conditions: po

Row | SMILES | Ki [1] [nM] | also measured
1 | CCCC(C)n1c(CC)nc2c(-c3ccc(C(C)OC)cc3Cl)ccnc21 (stereo unspecified) | 3.5 | –
2 | CCC(CCOC)n1c(OC)nc2c(-c3ccc(OC(F)(F)F)cc3Cl)ccnc21 (stereo unspecified) | 1.9 | –
3 | CCCC(C)n1c(CC)nc2c(-c3cc(C)c(OC)cc3C)ccnc21 (stereo unspecified) | 0.6 | –
4 | CCCC(C)n1c(CC)nc2c(-c3ccc(C(F)(F)F)cc3Cl)ccnc21 (stereo unspecified) | 1.1 | Ki [2]: 1.1 nM; Cmax [3]: 159 nM; AUC (Canis familiaris): 0.604 µM·h; half-life [4]: 4.9 h; ED50 (Rattus norvegicus): 3 mg/kg
5 | CCC(CCOC)n1c(C2CC2)nc2c(-c3ccc(C(F)(F)F)cc3Cl)ccnc21 (stereo unspecified) | 20.8 | –
6 | CCc1nc2c(-c3ccc(OC(F)F)cc3Cl)ccnc2n1C(C)C1CCC1 (stereo unspecified) | – | Ki [2]: 0.7 nM; Cmax [3]: 185 nM; AUC (Canis familiaris): 0.795 µM·h; half-life [4]: 10 h; ED50 (Rattus norvegicus): < 3 mg/kg
7 | CCCC(C)n1c(CC)nc2c(-c3ccc(S(C)(=O)=O)cc3C(F)(F)F)ccnc21 (stereo unspecified) | 6.8 | –
8 | CCC(CCOC)n1c(COC)nc2c(-c3ccc(C(F)(F)F)cc3Cl)ccnc21 (stereo unspecified) | 82.7 | –
9 | CCc1nc2c(-c3ccc(Cl)cc3Cl)ccnc2n1[C@@H](CC)C1CC1 | 0.4 | –
10 | CCc1nc2c(-c3ccc(C(F)(F)F)cc3Cl)ccnc2n1C(CC)COC (stereo unspecified) | 4.7 | –
11 | CCCC(C)n1c(CC)nc2c(-c3ccc(Cl)cc3C(C)=O)ccnc21 (stereo unspecified) | 95.6 | –
12 | CCc1nc2c(-c3ccc(Cl)cc3Cl)ccnc2n1C(CCOC)C1CC1 (stereo unspecified) | 1.5 | –
13 | CCc1nc2c(-c3ccc(Cl)cc3Cl)ccnc2n1[C@H](CC)C1CC1 | 0.2 | –
14 | CCCC(C)n1c(CC)nc2c(-c3ccc(C(C)=O)cc3Cl)ccnc21 (stereo unspecified) | 1 | –
15 | CCc1nc2c(-c3ccc(C(F)(F)F)cc3Cl)ncnc2n1C(C1CC1)C1CC1 | 1.8 | –
16 | CCCC(C)n1c(CC)nc2c(-c3ccc(OC)cc3C(F)(F)F)ccnc21 (stereo unspecified) | 0.74 | Ki [2]: 0.7 nM; Cmax [3]: 62 nM; AUC (Canis familiaris): 0.182 µM·h; half-life [4]: 5.9 h; ED50 (Rattus norvegicus): 3 mg/kg
17 | CCc1nc2c(-c3ccc(Cl)cc3Cl)ccnc2n1C(C)C1CCC1 (stereo unspecified) | 1 | –
18 | CCc1nc2c(-c3ccc(Cl)cc3Cl)ccnc2n1C(CCOC)C1CCC1 (stereo unspecified) | 2.4 | –
19 | CCCC(C)n1c(C(F)F)nc2c(-c3ccc(Cl)cc3Cl)ccnc21 (stereo unspecified) | 15.8 | –
20 | CCCC(C)n1c(CC)nc2c(-c3ccc(C(C)O)cc3Cl)ccnc21 (stereo unspecified) | 5.1 | –
21 | CCc1nc2c(-c3ccc(Cl)cc3Cl)ccnc2n1C(CC)CC | 1 | –
22 | CCCC(C)n1c(CC)nc2c(-c3ccc(OC)cc3C)ccnc21 (stereo unspecified) | 0.8 | –
23 | CCCC(C)n1c(CC)nc2c(-c3cc(F)c(F)cc3Cl)ccnc21 (stereo unspecified) | 2.4 | –
24 | CCCC(C)n1c(CC)nc2c(-c3ccc(/C(C)=N\OC)cc3Cl)ccnc21 (stereo unspecified) | 2.3 | –
25 | CCc1nc2c(-c3ccc(Cl)cc3Cl)ccnc2n1C(C)CC (stereo unspecified) | 1.3 | –
26 | CCc1nc2c(-c3ccc(Cl)cc3Cl)ccnc2n1[C@H](C)C1CC1 | 0.6 | –
27 | CCCC(C)n1c(CC)nc2c(-c3ccc(SC)cc3C(F)(F)F)ccnc21 (stereo unspecified) | 1.4 | –
